The subject of one assay is VCAM-1. The assay is described as follows: VCAM-1 assay: enzyme immunoassay of TNF-α induced VCAM-1 expression in endothelial cells. Format: cell-based, Human. How it is done: The VCAM-1 assay is an enzyme immunoassay to detect tumor necrosis factor alpha (TNF-α) induced Vascular Adhesion Molecule (VCAM-1) expression in endothelial cells.
Human endothelial cells (HAEC) were purchased from Clonetics and maintained in EGM media (Clonetics) supplemented with 5% fetal bovine serum (FBS). In a typical experiment, cells were seeded in 96-well plates. The next day cells were stimulated with TNF-α (1 ng/ml) purchased from Boehringer Mannheim in the presence or absence of compounds dissolved in dimethylsulphoxide (DMSO). To establish a dose curve for each compound, four concentrations in 2 fold increments were used. Cells were exposed to TNF-α and compounds for approximately 16 hours. The next day, cells were examined under microscope to score for visual signs of toxicity.
Media was discarded and the cells were washed once with Hanks buffered saline solution (HBSS)/phosphate buffered solution (PBS) 91:1). Primary mouse monoclonal antibody against VCAM-1 purchased from Southern Biotechnology Associates (0.25 μg/ml in HBSS/PBS+5% FBS) was added and incubated at 37° C. for 30 minutes. Cells were washed with HBSS/PBS three times, and secondary antibody horse radish peroxidase (HRP)-conjugated goat anti-mouse IgG purchased from Southern Biotechnology Associates (1:500 in HBSS/PBS+5% FBS) was added and incubated at 37° C. for 30 minutes. Cells were washed with HBSS/PBS four times and peroxidase substrate 3.3′,5,5′-tetramethyl-benzidine (TMB) was added and incubated in the dark at room temperature until there was adequate blue color development. The length of incubation time was typically 5-15 minutes. 2 N sulfuric acid was added to stop the color development and the data was collected by reading the absorbance at O.D. 450 nm. The result was expressed as the percentage of control sample (cells stimulated by TNF without any compound).

The next assay has as its system HASM. The assay is described as follows: Proliferation of non-transformed HASM cells (FIG. 1, CellTiter96). In kind it is cell-based, Human. The following applies: 10 μM dithiocarbamate + 0.1 μM 5-FU, or 0.1 μM 5-FU alone, 24-72 hours. How it is done: (§1) All primary cells and cell lines were commercially available. The transformed cell lines were grown in Dulbecco's Modified Eagle Media supplemented with 2 mM L-glutamine, 50 I.U. penicillin, 50 μg/ml streptomycin, nonessential amino acids and 10% heat-inactivated fetal bovine serum. HASM, HAEC and NHBE cells were cultured exactly as described by the commercial provider (Clonetics, San Diego, Calif.). All cell lines were grown at 37° C. in 5% CO2, with the media being changed every 48 hours.
(§2) For the experimental assays, cells were plated in 96-well plates and grown until ˜35% confluency was achieved. For the transformed cell lines, cells were plated at low density and grown for 72 hours prior to being stimulated, whereas the non-transformed cells were plated at a higher density and grown for 24 hours prior to being stimulated.
(§3) Cells were treated with dithiocarbamate (0.1-100 μM)±5FU (0.01-10 μM) and retreated after 48 hours when media was changed. Cell growth was assessed using the CellTiter96® assay system from Promega (Madison, Wis.). […]
(§4) Statistical significance was assessed using an ANOVA with the appropriate post-hoc analysis as well as Students t-tests. *=p<0.05 when compared to control-treated (DMSO) cells. #=p<0.05 when compared to 5FU-treated cells.

The subject of assay [1] is DLD-1 colorectal carcinoma cells. The assay can be described thus: Anti-proliferative effect on DLD-1 cells (CellTiter96). In kind it is cell-based. The conditions noted are these: Homo sapiens, 5-FU alone 1 μM, read-out: proliferation, percent of control. The protocol:
as §1, §2
(§5) Cells were treated with dithiocarbamate (0.1-100 μM)±5FU (0.01-10 μM) and retreated after 48 hours when media was changed. Cell growth was assessed using the CellTiter96® assay system from Promega (Madison, Wis.). Each experimental condition was performed in triplicate or quadruplicate, with the number of experiments for each cell line being three.
as §4

Assay [2] deals with SNU-C5 colorectal carcinoma cells. The assay is described as follows: Anti-proliferative effect on SNU-C5 cells (CellTiter96). Format: cell-based. The conditions noted are these: 5-FU alone 1 μM, read-out: proliferation, percent of control. The protocol:
as §1, §2, §5, §4

The next assay concerns NHBE. The assay is described as follows: Proliferation of non-transformed NHBE cells (FIG. 1, CellTiter96). In kind it is cell-based, Human. The conditions noted are these: 10 μM dithiocarbamate + 0.1 μM 5-FU, or 0.1 μM 5-FU alone, 24-72 hours. How it is done: as §1, §2, §3, §4
Another assay deals with HeLa. The assay can be described thus: Proliferation of HeLa cells (FIG. 1, CellTiter96). Format: cell-based. The conditions noted are these: 10 μM dithiocarbamate + 0.1 μM 5-FU, or 0.1 μM 5-FU alone, 24-72 hours. How it is done:
as §1, §2, §3, §4

The test system of another assay is H1299. The assay can be described thus: Proliferation of H1299 cells (FIG. 1, CellTiter96). Format: cell-based. The conditions noted are these: 10 μM dithiocarbamate + 0.1 μM 5-FU, or 0.1 μM 5-FU alone, 24-72 hours. How it is done:
as §1, §2, §3, §4

The test system of another assay is T98G. The assay can be described thus: Proliferation of T98G cells (FIG. 1, CellTiter96). In kind it is cell-based. The following applies: 10 μM dithiocarbamate + 0.1 μM 5-FU, or 0.1 μM 5-FU alone, 24-72 hours. How it is done:
as §1, §2, §3, §4

The test system of the next assay is HAEC. The assay can be described thus: Proliferation of non-transformed HAEC cells (FIG. 1, CellTiter96). The conditions noted are these: 10 μM dithiocarbamate + 0.1 μM 5-FU, or 0.1 μM 5-FU alone, 24-72 hours. In kind it is cell-based, Human. The protocol:
as §1, §2, §3, §4

The subject of another assay is Saos-2. The assay can be described thus: Proliferation of Saos-2 cells (FIG. 1, CellTiter96). Format: cell-based. The conditions noted are these: 10 μM dithiocarbamate + 0.1 μM 5-FU, or 0.1 μM 5-FU alone, 24-72 hours. How it is done: as §1, §2, §3, §4
The next assay deals with MCF-7. The assay can be described thus: Proliferation of MCF-7 cells (FIG. 1, CellTiter96). In kind it is cell-based. The conditions noted are these: 10 μM dithiocarbamate + 0.1 μM 5-FU, or 0.1 μM 5-FU alone, 24-72 hours. The protocol: as §1, §2, §3, §4
Setting [3] is: Homo sapiens, Endothelial cell, HAEC, TNF-α 1 ng/ml, approximately 16 hours, read-out: VCAM-1 IC50.
Setting [4] is: Homo sapiens, Endothelial cell, 16 h, read-out: VCAM-1 IC50 (μM).
The mark [5] stands for this setting: HAEC, TNF-α 1 ng/ml, approximately 16 hours, read-out: VCAM-1 IC50.

Molecules are shown by their SMILES. Counter-ions that a name gives are not always drawn. Like-named read-outs stand apart in the source and are kept apart here.

One may read the IC50 as the concentration needed to halve the response being measured. For `COC(=O)CCCSC(=S)NCC1CCCCC1` [4-(Cyclohexylmethylthiocarbamoylsulfanyl)butyric acid methyl ester], the IC50 in the assay with VCAM-1 (setting [3]) was 40 µM.
Turning to `S=C(NCc1ccc(Cl)cc1Cl)SCc1ccc(Cl)cc1Cl` [(2,4-dichlorobenzyl)dithiocarbamic acid 2,4-dichlorobenzyl ester], in the assay with VCAM-1 (setting [4]), the IC50 was found to be 8 µM.
Still for that read-out and setting: the result for `COC(=O)CCCSC(=S)NCCc1cc2ccccc2[nH]1` [4-[2-(1H-Indol-2-yl)ethylthiocarbamoyl-sulfanyl]butyric acid methyl ester] reads 5 µM.
Turning to `NC(CSC(=S)NCc1ccccc1)C(=O)O` (stereo not shown) [(2-Amino-3-benzylthiocarbamoylsulfanyl)propionic acid], the IC50 in the assay with VCAM-1 (setting [5]) is 7 µM.
Consider `CCOC(=O)NC(=S)SCCC(=O)OC` [3-(Ethoxycarbonylthiocarbamoylsulfanyl)propionic acid methyl ester], for which the IC50 in the assay with VCAM-1 (setting [3]) was found to be 50 µM.
Same read-out and setting: the result for `CCCCCCCCCCCCSC(=S)NCCc1ccccc1` [Phenethyldithiocarbamic acid dodecyl ester] reads 30 µM.
In the case of `COC(=O)CCSC(=S)NCc1ccco1` [3-(Furan-2-ylmethylthiocarbamoyl-sulfanyl)propionic acid methyl ester], the IC50 in the assay on VCAM-1 (setting [4]) was 6 µM.
Regarding `COC(=O)CCCSC(=S)NCCC1CCCN1C` (stereo not shown) [4-[2-(1-Methylpyrrolidin-2-yl)ethylthiocarbamoyl-sulfanyl]butyric acid methyl ester], the IC50 in the assay on VCAM-1 (setting [3]) is 18 µM.
On to `CCOC(=O)CCCNC(=S)SCC1CCCO1` (stereo not shown) [4-(Tetrahydrofuran-2-ylmethylsulfanyllthio-carbonylamino)butyric acid ethyl ester], for which, in the assay on VCAM-1 (setting [5]), the IC50 was determined as 5 µM.
Consider `C=CCNC(=S)SCCN` [Allyldithiocarbamic acid 2-aminoethyl ester hydrochloride], for which the IC50 with VCAM-1 (setting [3]) was 12 µM.
Still for that read-out and setting: the result for `COC(=O)CCCSC(=S)NC[C@@H]1CCCO1` [4-((S)-Tetrahydrofuran-2-ylmethylthiocarbamoyl-sulfanyl)butyric acid methyl ester] reads 3 µM; that for `N#CCCCSC(=S)NCC1CCCO1` (stereo not shown) [III: Y′=(CH2)3CN, (Tetrahydrofuran-2-ylmethyl)dithiocarbamic acid 3-cyano-propyl ester], 3 µM.
On the same count and under the same terms, the result for `COC(=O)CCSC(=S)NCC1CCCO1` (stereo not shown) [III: Y′=(CH2)2C(O)OCH3, 3-(Tetrahydrofuran-2-ylmethylthiocarbamoylsulfanyl)-propionic acid methyl ester] reads 3 µM.
For the molecule `O=c1[nH]cc(F)c(=O)[nH]1` [5-FU, 5-fluorouracil], the inhibition of proliferation entry with HASM, in the assay on NHBE, in the assay on HeLa, in the assay with H1299, in the assay on T98G and with HAEC was “no significant inhibition of proliferation” in each case. Further, the inhibition of proliferation entry with Saos-2 and in the assay with MCF-7 was “no significant inhibition of proliferation” throughout. In addition, the activity at 1 µM in assay [1] (24 HOURS) was determined as 90.8%; in [1] (48 HOURS), 85.8%; in assay [1] (72 HOURS), 113%; in assay [2] (24 HOURS), 109%; in assay [2] (48 HOURS), 85.5%; in assay [2] (72 HOURS), 86.1%.
On to `COCCCNC(=S)Sc1ccc(Cl)cc1` [(3-Methoxypropyl)dithiocarbamic acid 4-chlorophenyl ester], for which the IC50 with VCAM-1 (setting [3]) turned out to be 6 µM.
The same measure, in the same setting: the result for `COc1cccc(CNC(=S)SCC(=O)C(C)(C)C)c1` [(3-Methoxybenzyl)dithiocarbamic acid 3,3-dimethyl-2-oxo-butyl ester] reads 2 µM; that for `COC(=O)CCCSC(=S)NCc1ccccc1` [4-(Benzylthiocarbamoylsulfanyl)butyric acid methyl ester], 25 µM; that for `O=C(O)CCCSC(=S)NCC1CCCO1` (stereo not shown) [III: Y′=(CH2)3C(O)OH, 4-(Tetrahydrofuran-2-ylmethylthiocarbamoylsulfanyl)-butyric acid], 7 µM.
The same measure, in the same setting: with `S=C(NCc1cccnc1)SCc1cc(Cl)sc1Cl` [(Pyridin-3-ylmethyl)dithiocarbamic acid 2,5-dichloro-thiophen-3-ylmethyl ester] the figure was 1.5 µM.
In the case of `CC(C)CNC(=S)SCc1ccc(Cl)cc1Cl` [Isobutyldithiocarbamic acid 2,4-dichlorobenzyl ester], in the assay with VCAM-1 (setting [4]), the half-inhibitory concentration (IC50) came to 32 µM.
Consider `COC(=O)CSC(=S)NCC1CCCO1` (stereo not shown) [III: Y′=CH2C(O)OCH3, (Tetrahydrofuran-2-ylmethylthiocarbamoylsulfanyl)acetic acid methyl ester], for which the IC50 in the assay with VCAM-1 (setting [3]) was found to be 10 µM.
On to `CC(=O)CCCSC(=S)NCC1CCCO1` (stereo not shown) [III: Y′=(CH2)3C(O)CH3, (Tetrahydrofuran-2-ylmethyl)dithiocarbamic acid 4-oxo-pentyl ester], for which the 50% inhibitory concentration (IC50) in the assay with VCAM-1 (setting [3]) is 7 µM.
As for `CSC(=S)NCC1CCCO1` (stereo not shown) [III: Y′=CH3, (Tetrahydrofuran-2-ylmethyl)dithiocarbamic acid methyl ester], the IC50 in the assay on VCAM-1 (setting [3]) turned out to be 6.5 µM.
On to `CCN(CC)CCNC(=S)SCCC(=O)OC` [3-(2-Diethylamino-ethylthiocarbamoylsulfanyl)-propionic acid methyl ester], for which the half-inhibitory concentration (IC50) with VCAM-1 (setting [3]) was 37 µM.
On the same count and under the same terms, with `COCCNC(=S)SCCCC(=O)OC` [II: X=CH3O, Y′=C(O)OCH3, N=2, m=3, 4-(2-Methoxy-ethylthiocarbamoylsulfanyl)butyric acid methyl ester] the figure was 11 µM; with `COC(=O)CCCCCSC(=S)NCC1CCCO1` (stereo not shown) [III: Y′=(CH2)5C(O)OCH2CH3, 6-(Tetrahydrofuran-2-ylmethylthiocarbamoyl-sulfanyl)hexanoic acid methyl ester], 11 µM.
In the case of `C=CCNC(=S)SCCCC(=O)OC` [4-(Allylthiocarbamoylsulfanyl)butyric acid methyl ester], the IC50 in the assay with VCAM-1 (setting [3]) stood at 30 µM.
Same read-out and setting: the result for `CNC(=S)SCCC(=O)OC` [II: X=H, Y′=C(O)OCH3, N=1, m=2, 3-(Methylthiocarbamoylsulfanyl)propionic acid methyl ester] reads 14 µM; that for `CNC(=S)Sc1ccc(F)cc1F` [Methyldithiocarbamic acid 2,4-difluorophenyl ester], 18 µM; that for `COC(=O)CCCSC(=S)NC[C@H]1CCCO1` [4-((R)-Tetrahydrofuran-2-ylmethylthiocarbamoyl-sulfanyl)butyric acid methyl ester], 3 µM.

(Values after patent publication US6747061B2, “N-substituted dithiocarbamates for the treatment of biological disorders” (AtheroGenics, Inc., priority 2000, dated 2004).)
